Results as given in publication PMC8224802 (Pharmaceutics, 2021).

How the values were obtained:
[1] = Plasma protein binding by rapid equilibrium dialysis (human plasma); assay type: in vitro ADME
Method: (§1) A 200 μL spiked samples and 400 μL PBS were placed into the “sample” and “buffer” chambers of the RED device, respectively. After 4-h incubation to equilibrate between the buffer and plasma compartments, the RED plate was sampled from both compartments. The samples were matrix-matched for analysis by addition of either diluted plasma or buffer; (a) blank diluted plasma added to the buffer samples and (b) blank buffer added to the diluted plasma sample, at a ratio of 50:50 v/v. The unbound fractions in microsomes and diluted plasma were determined by dividing the analyte/IS peak area ratios of the (a) sample by those of the (b) sample. The unbound fraction in diluted plasma (fu,d) was converted to the unbound fraction in undiluted plasma (fu) using a Kalvass equation as below (DF: dilution factor). (1) fu=1/DF/[(1/fu,d)−1]+1/DF

[2] = Plasma protein binding by rapid equilibrium dialysis (rat plasma); assay type: in vitro ADME, Sprague-Dawley rat
Method: as §1

CCOc1cc(CC(=O)N[C@@H](CC(C)C)c2ccccc2N2CCCCC2)ccc1C(=O)O [RPG, Repaglinide]
Change of fuP of RPG by the presence of QCT ([1]; human plasma, RPG and QCT 5 μM each): not significantly altered
fraction unbound at 4 h, 5 μM ([1]; human, plasma (20-fold diluted), read-out: fuP (unbound fraction in plasma)): 0.0533 ± 0.006
fraction unbound at 4 h, 5 μM ([2]; Sprague-Dawley, rat, plasma (20-fold diluted), read-out: fuP (unbound fraction in plasma)): 0.0761 ± 0.0094
Change of fuP of RPG by the presence of QCT ([2]; rat plasma, RPG and QCT 5 μM each): not significantly altered
